Test results: PMC11645189 (ACS infectious diseases, 2024)

How the values were obtained:
[1] = system: P. yoelii; assay: in vivo blood-stage efficacy in the P. yoelii mouse model; parameters: species or system Plasmodium yoelii
[2] = system: P. falciparum D6; conditions: read-out: asexual blood-stage vs. P. falciparum D6 IC50; cited from earlier work
[3] = system: P. falciparum stage V gametocytes; assay: gametocytocidal assay using late-stage gametocytes; format: cell-based; conditions: Plasmodium falciparum, read-out: sexual blood-stage vs. P. falciparum stage V gametocytes IC50

## CCN(CC)CCCC(C)Nc1ccnc2cc(Cl)ccc12 (stereo not shown) [CQ, chloroquine]
[1]; 25 mg/kg/4d oral
  in vivo %parasitemia reduction vs. controls on day 5: 100%
[1]; 50 mg/kg/4d oral
  in vivo %parasitemia reduction vs. controls on day 5: 100%

## O=C1C(O)=C([C@H]2CC[C@H](c3ccc(Cl)cc3)CC2)C(=O)c2ccccc21 [ATQ, Atovaquone]
[2]
  IC50: 0.1 nM

## CN(C)c1ccc2nc3ccc(=[N+](C)C)cc-3sc2c1 [methylene blue]
[3]
  IC50: 143 nM
